These results are taken from PMC5151175 (Journal of medicinal chemistry, 2016).

One data set concerns HIV-1/NL4-3. The class given is cell-based. The settings on record: for IC50 NL4-3: wild-type HIV-1/NL4-3 replication, mean ± SD of three separate experiments, NS = no selective anti-HIV activity (CC50/IC50 < 5).
The test system of another data set is NL4-3/V370A. The data set is classed as cell-based, HIV-1. The conditions noted are these: IC50(NL4-3/V370A)/IC50(NL4-3) ratio.
For data set [1], the system named is NL4-3 Env-mediated cell–cell fusion. The data set can be described thus: fusion assay. The class given is cell-based, HIV-1. The settings on record: average of two independent tests.
The test system of data set [2] is NL4-3 infection of TZM-bl cells. Briefly: TZM-bl assay. The data set is classed as cell-based, HIV-1. The conditions noted are these: at 2 µM; average of two tests.
The nature of the next data set: in vitro metabolic. The conditions noted are these: human, microsomes. The data set is classed as in vitro ADME.
The conditions of data set [3]: human, in vivo; cited from earlier work.
A further data set has as its system HIV in MT-4 cells. The conditions noted are these: cited from earlier work; for IC50: read-out: IC50, anti-HIV activity in MT-4 cells.
The subject of a further data set is HIV-1 integrase. The conditions noted are these: cited from earlier work.
Data set [4] has as its system HIV replication in MT-2 cell. The conditions noted are these: read-out: IC50, HIV replication in MT-2 cells; cited from earlier work.

“Also recorded” adds a separate entry of the source.

As to `O=C(/C=C/c1ccc2c(c1)OCO2)N1CCNCC1` [14c], the “IC50 NL4-3” value with HIV-1/NL4-3 is “inactive”. With `C=C(C)[C@@H]1CC[C@]2(C(=O)N3CCN(C(=O)/C=C/c4ccc5c(c4)OCO5)CC3)CC[C@]3(C)[C@H](CC[C@@H]4[C@@]5(C)CC[C@H](OC(=O)CC(C)(C)C(=O)O)C(C)(C)[C@@H]5CC[C@]43C)[C@@H]12` [18c], in the data set on NL4-3/V370A, the “RFC (resistance fold change)” value is on record as 7.89. The “inhibition of NL4-3 Env-mediated cell–cell fusion” value in data set [1] is “no activity; also recorded: did not inhibit”. In addition, in [2], the “inhibition of NL4-3 infection of TZM-bl cells” value (from here on “inhibition … of TZM-bl cells”) is listed as “no inhibition; also recorded: no activity”. This compound returned a microsomal CLint in the data set “in vitro metabolic” of 54 µL/min/mg. As to `C=C(C)[C@@H]1CC[C@]2(C(=O)NCCCCCCCNC(C)=O)CC[C@]3(C)[C@H](CC[C@@H]4[C@@]5(C)CC[C@H](O)C(C)(C)[C@@H]5CC[C@]43C)[C@@H]12` [A43D], the “inhibition of NL4-3 Env-mediated cell–cell fusion” value in data set [1] is listed as “strongly inhibited”. The “inhibition … of TZM-bl cells” value in data set [2] is recorded as “totally inhibited”. As to `C=C(C)[C@@H]1CC[C@]2(C(=O)O)CC[C@]3(C)[C@H](CC[C@@H]4[C@@]5(C)CC[C@H](OC(=O)CC(C)(C)C(=O)O)C(C)(C)[C@@H]5CC[C@]43C)[C@@H]12` [compound 2, 3-O-(3′,3′-dimethylsuccinyl)-betulinic acid], the “inhibition of NL4-3 Env-mediated cell–cell fusion” value in data set [1] was “no activity”. Moreover, the “inhibition … of TZM-bl cells” value in data set [2] is “no inhibition”. In data set [3], the “elimination half-life t1/2” value is 56.3 to 69.5 h.

With `O=C(O)/C=C/c1ccc(O)c(O)c1` [compound 5, 3,4-dihydroxycinnamic acid], the “IC50 NL4-3” value in the data set with HIV-1/NL4-3 is listed as “no selectivity”.

Turning to `O=C(/C=C/c1cc(O)c(O)cc1[N+](=O)[O-])O[C@H](Cc1cc(O)c(O)cc1[N+](=O)[O-])C(=O)O` [compound 6, 6′,6″-Dinitrorosmarinic acid], in the data set on HIV in MT-4 cells, the “anti-HIV activity in MT-4 cells” value was “moderate anti-HIV activity”. Also, the HIV-1 integrase inhibition entry with HIV-1 integrase is given as “potent HIV-1 integrase inhibition”.

Take `O=C(/C=C/c1ccc(O)c2c1[C@H](C(=O)O)[C@@H](c1ccc(O)c(O)c1)O2)O[C@H](Cc1ccc(O)c(O)c1)C(=O)O` [compound 7, (+)-Lithospermic acid]: in the data set on HIV-1 integrase, the “HIV-1 integrase inhibitory activity” value is on record as “submicromolar range”. In the case of `O=C(/C=C/c1ccc(O)c(O)c1)O[C@@H]1C[C@](O)(C(=O)O)C[C@@H](OC(=O)/C=C/c2ccc(O)c(O)c2)[C@H]1O` [compound 8, 3,5-Dicaffeoylquinic acid], the “HIV-1 integrase inhibitory activity” value in the data set on HIV-1 integrase is listed as “active against HIV-1 integrase”.

In the case of `C=C(C)[C@@H]1CC[C@]2(C(=O)N3CCNCC3)CC[C@]3(C)[C@H](CC[C@@H]4[C@@]5(C)CC[C@H](OC(=O)CC(C)(C)C(=O)O)C(C)(C)[C@@H]5CC[C@]43C)[C@@H]12` [compound 20], the “fold less active than 2 against NL4-3” value with HIV-1/NL4-3 (compared with 2) is recorded as 8 fold.

For the compound (+)-erythro-7′-methylcarolignan E [11a], the IC50 with HIV in MT-4 cells was 6.3 µM. (−)-erythro-7′-methylcarolignan E [11b]: the IC50 in the data set on HIV in MT-4 cells is 5.3 µM. Regarding L-Chicoric acid [compound 9], the IC50 in [4] was 4.2 µM.

Broadly, the microsomal CLint is the capacity of the preparation to metabolise the compound, expressed as a volume cleared per time. The term IC50 denotes the concentration at which inhibition is half-maximal.
